Assay results taken from PubChem BioAssay AID2060496 (Molecular Pharmacology Branch, DTP, NCI, 2025).
Each block holds one compound with its values, some of them ahead of it.

Test system: 276233-004-R-J1-PDC complex spheroid viability
Assay: Anticancer human tumor 276233-004-R-J1-PDC patient-derived colon adenocarcinoma cell line growth inhibition [GQUAD]
Conditions: for IC50: curve of first compound; for viability, T/C: stronger effect = lower value
In short: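 Tumor cells were grown as complex spheroids with HUVEC endothelial cells and mesenchymal stem cells as stroma. G-quadruplex stabilizers were combined with targeted agents over half-log dilutions from near the clinical Cmax, or from 10 microM.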

[1] = second compound 0.0316 µM, first compound 0.0316 µM
[2] = second compound 0.0316 µM, first compound 0.1 µM
[3] = second compound 0.0316 µM, first compound 0.316 µM
[4] = second compound 0.0316 µM, first compound 1 µM
[5] = second compound 0.0316 µM, first compound 3.16 µM
[6] = second compound 0.0316 µM, first compound 10 µM
[7] = second compound 0.1 µM, first compound 0.0316 µM
[8] = second compound 0.1 µM, first compound 0.1 µM
[9] = second compound 0.1 µM, first compound 0.316 µM
[10] = second compound 0.1 µM, first compound 1 µM
[11] = second compound 0.1 µM, first compound 3.16 µM
[12] = second compound 0.1 µM, first compound 10 µM
[13] = second compound 0.316 µM, first compound 0.0316 µM
[14] = second compound 0.316 µM, first compound 0.1 µM
[15] = second compound 0.316 µM, first compound 0.316 µM
[16] = second compound 0.316 µM, first compound 1 µM
[17] = second compound 0.316 µM, first compound 3.16 µM
[18] = second compound 0.316 µM, first compound 10 µM
[19] = second compound 1 µM, first compound 0.0316 µM
[20] = second compound 1 µM, first compound 0.1 µM
[21] = second compound 1 µM, first compound 0.316 µM
[22] = second compound 1 µM, first compound 1 µM
[23] = second compound 1 µM, first compound 3.16 µM
[24] = second compound 1 µM, first compound 10 µM
[25] = second compound 3.16 µM, first compound 0.0316 µM
[26] = second compound 3.16 µM, first compound 0.1 µM
[27] = second compound 3.16 µM, first compound 0.316 µM
[28] = second compound 3.16 µM, first compound 1 µM
[29] = second compound 3.16 µM, first compound 3.16 µM
[30] = second compound 3.16 µM, first compound 10 µM
[31] = second compound 10 µM, first compound 0.0316 µM
[32] = second compound 10 µM, first compound 0.1 µM
[33] = second compound 10 µM, first compound 0.316 µM
[34] = second compound 10 µM, first compound 1 µM
[35] = second compound 10 µM, first compound 3.16 µM
[36] = second compound 10 µM, first compound 10 µM
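Further: spheroids exposed to drugs for seven days.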
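Wherever viability, T/C is given: 100% = DMSO vehicle control viability.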

SMILES: COc1cc(C2c3cc4c(cc3C(OC3OC5COC(C)OC5C(O)C3O)C3COC(=O)C23)OCO4)cc(OC)c1O (stereo unspecified) + Cc1[nH]c2ccc(F)cc2c1-c1nc2c3cccnc3c3ncccc3c2[nH]1
- IC50 (second compound 0.0316 µM): > 10 µM
- IC50 (second compound 0.1 µM): > 10 µM
- IC50 (second compound 0.316 µM): > 10 µM
- IC50 (second compound 1 µM): > 10 µM
- IC50 (second compound 3.16 µM): 2.82 µM
- IC50 (second compound 10 µM): < 0.0316 µM
- viability, T/C [1]: 72.9%
- viability, T/C [2]: 82.7%
- viability, T/C [3]: 111%
- viability, T/C [4]: 80.6%
- viability, T/C [5]: 89.2%
- viability, T/C [6]: 83.7%
- viability, T/C [7]: 89.9%
- viability, T/C [8]: 110%
- viability, T/C [9]: 84.2%
- viability, T/C [10]: 78.9%
- viability, T/C [11]: 83.7%
- viability, T/C [12]: 76.3%
- viability, T/C [13]: 79.8%
- viability, T/C [14]: 79.7%
- viability, T/C [15]: 85.2%
- viability, T/C [16]: 101%
- viability, T/C [17]: 83%
- viability, T/C [18]: 69%
- viability, T/C [19]: 78.4%
- viability, T/C [20]: 65.1%
- viability, T/C [21]: 71.4%
- viability, T/C [22]: 64.9%
- viability, T/C [23]: 73.7%
- viability, T/C [24]: 64.2%
- viability, T/C [25]: 53%
- viability, T/C [26]: 63.3%
- viability, T/C [27]: 52%
- viability, T/C [28]: 65.7%
- viability, T/C [29]: 47.3%
- viability, T/C [30]: 50.9%
- viability, T/C [31]: 50.1%
- viability, T/C [32]: 49.6%
- viability, T/C [33]: 44.2%
- viability, T/C [34]: 50.9%
- viability, T/C [35]: 41%
- viability, T/C [36]: 45%

SMILES: CC[C@@]1(O)C(=O)OCc2c1cc1n(c2=O)Cc2cc3c(CN(C)C)c(O)ccc3nc2-1 + Cc1[nH]c2ccc(F)cc2c1-c1nc2c3cccnc3c3ncccc3c2[nH]1
- IC50 (second compound 0.0316 µM): > 0.316 µM
- IC50 (second compound 0.1 µM): > 0.316 µM
- IC50 (second compound 0.316 µM): > 0.316 µM
- IC50 (second compound 1 µM): > 0.316 µM
- IC50 (second compound 3.16 µM): < 0.000999 µM
- IC50 (second compound 10 µM): < 0.000999 µM
- viability, T/C (second compound 0.0316 µM, first compound 0.000999 µM): 83.1%
- viability, T/C (second compound 0.0316 µM, first compound 0.00316 µM): 76.6%
- viability, T/C (second compound 0.0316 µM, first compound 0.00999 µM): 80.8%
- viability, T/C [1]: 89.2%
- viability, T/C (second compound 0.0316 µM, first compound 0.0999 µM): 92%
- viability, T/C [3]: 91.5%
- viability, T/C (second compound 0.1 µM, first compound 0.000999 µM): 93.4%
- viability, T/C (second compound 0.1 µM, first compound 0.00316 µM): 102%
- viability, T/C (second compound 0.1 µM, first compound 0.00999 µM): 102%
- viability, T/C [7]: 87%
- viability, T/C (second compound 0.1 µM, first compound 0.0999 µM): 88.2%
- viability, T/C [9]: 96.9%
- viability, T/C (second compound 0.316 µM, first compound 0.000999 µM): 78.7%
- viability, T/C (second compound 0.316 µM, first compound 0.00316 µM): 88.4%
- viability, T/C (second compound 0.316 µM, first compound 0.00999 µM): 82.7%
- viability, T/C [13]: 89.6%
- viability, T/C (second compound 0.316 µM, first compound 0.0999 µM): 99.6%
- viability, T/C [15]: 82.8%
- viability, T/C (second compound 1 µM, first compound 0.000999 µM): 71.2%
- viability, T/C (second compound 1 µM, first compound 0.00316 µM): 78.4%
- viability, T/C (second compound 1 µM, first compound 0.00999 µM): 76.2%
- viability, T/C [19]: 67.9%
- viability, T/C (second compound 1 µM, first compound 0.0999 µM): 58.2%
- viability, T/C [21]: 77.7%
- viability, T/C (second compound 3.16 µM, first compound 0.000999 µM): 48.4%
- viability, T/C (second compound 3.16 µM, first compound 0.00316 µM): 54.4%
- viability, T/C (second compound 3.16 µM, first compound 0.00999 µM): 48.5%
- viability, T/C [25]: 51.6%
- viability, T/C (second compound 3.16 µM, first compound 0.0999 µM): 61.9%
- viability, T/C [27]: 58.3%
- viability, T/C (second compound 10 µM, first compound 0.000999 µM): 46%
- viability, T/C (second compound 10 µM, first compound 0.00316 µM): 40.5%
- viability, T/C (second compound 10 µM, first compound 0.00999 µM): 53.9%
- viability, T/C [31]: 58%
- viability, T/C (second compound 10 µM, first compound 0.0999 µM): 50.7%
- viability, T/C [33]: 46.7%

- IC50 (second compound 0.0316 µM): > 10 µM
- IC50 (second compound 0.1 µM): > 10 µM
- IC50 (second compound 0.316 µM): 3.7 µM
- IC50 (second compound 1 µM): 4.44 µM
- IC50 (second compound 3.16 µM): 3.32 µM
- IC50 (second compound 10 µM): 1.07 µM
SMILES: CC1COCCN1c1cc(-c2ccnn2C)c2ccnc(-c3ccn[nH]3)c2n1 (stereo unspecified) + Cc1cnc(CNC(=O)c2c(=O)c3ccc(N4CCCN(C)CC4)nc3n3c2sc2ccccc23)cn1
- viability, T/C [1]: 99.5%
- viability, T/C [2]: 57.5%
- viability, T/C [3]: 78.7%
- viability, T/C [4]: 56%
- viability, T/C [5]: 63.2%
- viability, T/C [6]: 42.5%
- viability, T/C [7]: 79.6%
- viability, T/C [8]: 86.5%
- viability, T/C [9]: 63.2%
- viability, T/C [10]: 67.2%
- viability, T/C [11]: 56.6%
- viability, T/C [12]: 55.1%
- viability, T/C [13]: 73.1%
- viability, T/C [14]: 67.1%
- viability, T/C [15]: 65.9%
- viability, T/C [16]: 58.9%
- viability, T/C [17]: 51.3%
- viability, T/C [18]: 41.8%
- viability, T/C [19]: 68.9%
- viability, T/C [20]: 64.7%
- viability, T/C [21]: 67.4%
- viability, T/C [22]: 58.4%
- viability, T/C [23]: 52.3%
- viability, T/C [24]: 43.5%
- viability, T/C [25]: 63.1%
- viability, T/C [26]: 57.3%
- viability, T/C [27]: 62%
- viability, T/C [28]: 55.8%
- viability, T/C [29]: 49.7%
- viability, T/C [30]: 41.1%
- viability, T/C [31]: 53.4%
- viability, T/C [32]: 50.6%
- viability, T/C [33]: 51%
- viability, T/C [34]: 47.2%
- viability, T/C [35]: 49.2%
- viability, T/C [36]: 38.5%
